Common to all, as to type: cell-based
Parameters in all cases: key: ○ corresponds to genes whose expression is significantly changed; x corresponds to genes whose expression is not changed

The test system of one test is AHRR. Description: Microarray gene expression in keratinocytes UV-irradiated through wavelength conversion substance: AHRR. The settings on record: Normal Human Epidermal Keratinocytes; UV 100 mJ/cm^2 through substance solution without direct contact; 24 hours after irradiation. The method, then: (§1) The wavelength conversion substances of (1) and (2) were dissolved in water to prepare solutions at concentrations of 1% and 5%.
(§2) The wavelength conversion substances of (3) and (4) were dispersed in alcohol to prepare 5% and 10% dispersions.
(§3) 1. Normal Human Epidermal Keratinocytes (PromoCell) were used. A cell suspension (1 mL) stored with liquid nitrogen was placed in a hot water bath (37° C.) and thawed until small ice pellets remained, and then diluted with 9 mL of warm KGM medium. 2. The diluted suspension was gently mixed and transferred to a T75 flask, and incubated overnight at 37° C. 3. On the following day, the medium was exchanged with 10 mL of fresh medium. 4. The medium was periodically exchanged (once every 2 to 3 days), while continuing growth of the cells. During this time, a microscope was used to observe the cells and to confirm that the cells had proliferated with the proper form. 5. Once the cells reached approximately 80% confluence, they were subcultured. 6. Subculturing of the cells was carried out by rinsing and aspirating once in 10 mL of warm PBS. 7. 5 mL of warm trypsin was added to the T75 flask to cover the bottom of the flask with the trypsin solution, and the mixture was aspirated after standing for 1 minute at room temperature. 8. The flask was set in an oven at 37° C. for 5 minutes (maximum) for keratinocytes. […]

In a further test the test system is HMOX1. Kind of test: Microarray gene expression in keratinocytes UV-irradiated through wavelength conversion substance: HMOX1. The following applies: Normal Human Epidermal Keratinocytes; UV 100 mJ/cm^2 through substance solution without direct contact; 24 hours after irradiation. The method, then: as §1, §2, §3
The subject of the next test is AhR. Description: Microarray gene expression in keratinocytes UV-irradiated through wavelength conversion substance: AhR. The following applies: Normal Human Epidermal Keratinocytes; UV 100 mJ/cm^2 through substance solution without direct contact; 24 hours after irradiation; expression of AhR is reduced. The method, then: as §1, §2, §3

1 compound from US20230050588A1, “ANTIOXIDANT OR SKIN STRESS INHIBITOR” (Shiseido Company, Ltd., priority 2020, published 2023) can be followed below.

Structures are written as SMILES.

With `Cc1cc2nc3c(=O)[nH]c(=O)nc-3n(C[C@H](O)[C@H](O)[C@H](O)CO)c2cc1C` [Vitamin B2, Riboflavin], the “AHRR gene expression change (microarray)” value in the test with AHRR is listed as “○”. The “HMOX1 gene expression change (microarray)” value with HMOX1 is “x”. Also, in the test with AhR, the “AhR gene expression change (microarray)” value is on record as “○”.
